Here are results for three molecules from patent publication EP4692071A1, “PHOTOCHROMIC COMPOUND, NAPHTHOL DERIVATIVE, CURABLE COMPOSITION, OPTICAL ARTICLE, LENS, AND EYEGLASS” (TOKUYAMA CORPORATION, priority 2023, dated 2024).

The nature of one data set: Maximum absorption wavelength (λmax) after color development, spectrophotometer MCPD3000. Format: physicochemical. To be noted: photochromic laminate by coating method, 40 µm photochromic layer on thiourethane lens, 0.25 mmol compound per 100 g monomers. The method, boiled down:
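Read-out: absorbance at λmax, multichannel photodetector spectrophotometer. Colour density = ε(240) − ε(0), 240 s light, 23°C. τ1/2 = time for ε(240) − ε(0) to halve after light off. Residual rate compares density before and after 90 h xenon weathering.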
On to `CCCCN(c1ccc(F)cc1)c1cc2c3c(c4c(c2cc1OC)OC(c1ccc(OC)cc1)(c1ccc(OC)cc1)C=C4)C(CCCCOC)(CCCCOC)c1ccccc1-3` [Example 16 Formula (77)], for which the “Maximum absorption wavelength (nm)” value is listed as 498 nm.
Still for that read-out and setting: next, `CCCC1(CCC)c2ccccc2-c2c1c1c(c3cc(OC)c(N(c4ccccc4)c4ccccc4)cc23)OC(c2ccc(C)cc2)(c2ccc(N(C)c3ccccc3)cc2)C=C1` (stereo not drawn) [Example 22 Formula (89)]: 530 nm.

The data set is the same for the next values; noted with them: photochromic laminate by coating method, 40 µm photochromic layer on thiourethane lens, 0.25 mmol compound per 100 g monomers; at 462 nm absorption maximum.
`CCCOc1ccc(C2(c3ccc(OC)cc3)C=Cc3c4c(c5cc(N(c6ccc(C(F)(F)F)cc6)c6ccc(C(F)(F)F)cc6)c(OC)cc5c3O2)-c2ccccc2C4(CCCCOC)CCCCOC)cc1` (stereo not drawn) [Example 11 Formula (63)]: the “Maximum absorption wavelength (nm)” value is recorded as 462 nm.

The data set is the same for the next values; noted with them: photochromic laminate by coating method, 40 µm photochromic layer on thiourethane lens, 0.25 mmol compound per 100 g monomers; at 576 nm absorption maximum.
As to `CCCOc1ccc(C2(c3ccc(OC)cc3)C=Cc3c4c(c5cc(N(c6ccc(C(F)(F)F)cc6)c6ccc(C(F)(F)F)cc6)c(OC)cc5c3O2)-c2ccccc2C4(CCCCOC)CCCCOC)cc1` (stereo not drawn) [Example 11 Formula (63)], the “Maximum absorption wavelength (nm)” value is listed as 576 nm.

A further data set in a line: 23°C color optical density (A23): absorbancy difference ε(240)-ε(0) after 240 s light irradiation at 23°C. The conditions noted are these: photochromic laminate by coating method, 240 s irradiation, at the maximum absorption wavelength. Type of data set: physicochemical. The method, boiled down: (§1)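 Photochromic plastic lens samples were irradiated for 240 s at 23°C, and colour density was taken as the absorbance change at the absorption maximum. Fading half-life was timed from the end of irradiation until that absorbance change fell by half. Durability compared colour density before and after xenon-lamp ageing.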
On to `CCCCN(c1ccc(F)cc1)c1cc2c3c(c4c(c2cc1OC)OC(c1ccc(OC)cc1)(c1ccc(OC)cc1)C=C4)C(CCCCOC)(CCCCOC)c1ccccc1-3` [Example 16 Formula (77)], for which the “A23 (-)” value is reported as 1.25 -.
`CCCC1(CCC)c2ccccc2-c2c1c1c(c3cc(OC)c(N(c4ccccc4)c4ccccc4)cc23)OC(c2ccc(C)cc2)(c2ccc(N(C)c3ccccc3)cc2)C=C1` (stereo not drawn) [Example 22 Formula (89)]: the “A23 (-)” value is on record as 1.51 -.

The data set is the same for the next values; noted with them: photochromic laminate by coating method, 240 s irradiation, at the maximum absorption wavelength, at 462 nm absorption maximum.
`CCCOc1ccc(C2(c3ccc(OC)cc3)C=Cc3c4c(c5cc(N(c6ccc(C(F)(F)F)cc6)c6ccc(C(F)(F)F)cc6)c(OC)cc5c3O2)-c2ccccc2C4(CCCCOC)CCCCOC)cc1` (stereo not drawn) [Example 11 Formula (63)]: the “A23 (-)” value is 0.75 -.

Staying with this data set, now noted: photochromic laminate by coating method, 240 s irradiation, at the maximum absorption wavelength, at 576 nm absorption maximum.
For `CCCOc1ccc(C2(c3ccc(OC)cc3)C=Cc3c4c(c5cc(N(c6ccc(C(F)(F)F)cc6)c6ccc(C(F)(F)F)cc6)c(OC)cc5c3O2)-c2ccccc2C4(CCCCOC)CCCCOC)cc1` (stereo not drawn) [Example 11 Formula (63)], the “A23 (-)” value is given as 0.66 -.

A short description of a further data set: 35°C color optical density (A35): absorbancy difference ε(240)-ε(0) after 240 s light irradiation at 35°C. Type of data set: physicochemical. To be noted: photochromic laminate by coating method, 240 s irradiation. An outline of the steps: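 Color optical density at 35°C (A35) came from light exposure of the sample at 35°C lasting 240 seconds. At the first and second absorption wavelengths, the absorbancy before irradiation, ε(0), was subtracted from the absorbancy measured after irradiation, ε(240). This difference was taken as the measure of color optical density.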
As to `CCCCN(c1ccc(F)cc1)c1cc2c3c(c4c(c2cc1OC)OC(c1ccc(OC)cc1)(c1ccc(OC)cc1)C=C4)C(CCCCOC)(CCCCOC)c1ccccc1-3` [Example 16 Formula (77)], the “A35 (-)” value was 0.84 -.
As to `CCCC1(CCC)c2ccccc2-c2c1c1c(c3cc(OC)c(N(c4ccccc4)c4ccccc4)cc23)OC(c2ccc(C)cc2)(c2ccc(N(C)c3ccccc3)cc2)C=C1` (stereo not drawn) [Example 22 Formula (89)], the “A35 (-)” value is 1.03 -.

Still in this data set, the particulars now being: photochromic laminate by coating method, 240 s irradiation, at 462 nm absorption maximum.
For `CCCOc1ccc(C2(c3ccc(OC)cc3)C=Cc3c4c(c5cc(N(c6ccc(C(F)(F)F)cc6)c6ccc(C(F)(F)F)cc6)c(OC)cc5c3O2)-c2ccccc2C4(CCCCOC)CCCCOC)cc1` (stereo not drawn) [Example 11 Formula (63)], the “A35 (-)” value is on record as 0.46 -.

The same data set, now with this note: photochromic laminate by coating method, 240 s irradiation, at 576 nm absorption maximum.
With `CCCOc1ccc(C2(c3ccc(OC)cc3)C=Cc3c4c(c5cc(N(c6ccc(C(F)(F)F)cc6)c6ccc(C(F)(F)F)cc6)c(OC)cc5c3O2)-c2ccccc2C4(CCCCOC)CCCCOC)cc1` (stereo not drawn) [Example 11 Formula (63)], the “A35 (-)” value is recorded as 0.41 -.

A further data set can be described thus: High-temperature color development rate (A35/A23×100), temperature dependency. Format: physicochemical. To be noted: photochromic laminate by coating method. The method, boiled down: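 The sample was irradiated with light for 240 seconds at 23°C and separately at 35°C. The gain in absorbance over the unirradiated state, ε(240)−ε(0), gave the color optical densities A23 and A35. A35 divided by A23, multiplied by 100, expressed how well color development holds up at the higher temperature.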
In the case of `CCCCN(c1ccc(F)cc1)c1cc2c3c(c4c(c2cc1OC)OC(c1ccc(OC)cc1)(c1ccc(OC)cc1)C=C4)C(CCCCOC)(CCCCOC)c1ccccc1-3` [Example 16 Formula (77)], the “A35/A23 *100 (%)” value is 67%.
On to `CCCC1(CCC)c2ccccc2-c2c1c1c(c3cc(OC)c(N(c4ccccc4)c4ccccc4)cc23)OC(c2ccc(C)cc2)(c2ccc(N(C)c3ccccc3)cc2)C=C1` (stereo not drawn) [Example 22 Formula (89)], for which the “A35/A23 *100 (%)” value is reported as 68%.
On the same count and under the same terms, with `CCCOc1ccc(C2(c3ccc(OC)cc3)C=Cc3c4c(c5cc(N(c6ccc(C(F)(F)F)cc6)c6ccc(C(F)(F)F)cc6)c(OC)cc5c3O2)-c2ccccc2C4(CCCCOC)CCCCOC)cc1` (stereo not drawn) [Example 11 Formula (63)] the figure was 61%.

A short description of a further data set: 23°C color fading half-life τ1/2 after 240 s light irradiation. Format: physicochemical.
Settings: not given
How it is done:
• [1] Maximum Absorption Wavelength (λmax): The maximum absorption wavelength after color development, measured using a spectrophotometer (instantaneous multichannel photodetector MCPD3000) manufactured by Otsuka Electronics Co., Ltd. was used as an indicator for the color tone during the color development. • [2] 23°C Color Optical Density (A23): A difference between an absorbancy measured after light irradiation at 23°C for 240 seconds {ε(240)} and an absorbancy without light irradiation ε(0) at the maximum absorption wavelength was used as an indicator for the color optical density. […] 35°C Color Optical Density (A35): A difference between an absorbancy measured after light irradiation at 35°C for 240 seconds {ε(240)} and an absorbancy without light irradiation ε(0) at the first and second absorption wavelengths was used as an indicator for the color optical density. […] 23°C color fading half-life [τ1/2 (sec.)]: A time required for the absorbancy of the sample at the maximum absorption wavelength to decrease to 1/2 of {ε(240)-ε(0)} when the light irradiation is terminated after the light irradiation at 23°C for 240 seconds, was used as an indicator for the color fading speed. The shorter this time, the higher the color fading speed. • [6] Residual rate (A90/A0×100): The obtained photochromic plastic lens was subjected to accelerated deterioration using a xenon weather meter X25 manufactured by Suga Test Instruments Co., Ltd. for 90 hours. Subsequently, the color optical density was evaluated before and after the test, then a color optical density before the test (A0) and a color optical density after the test (A90) were measured, and a ratio (A90/A0) was defined as a residual rate. The residual rate was used as an indicator for a color developing durability. The higher the residual rate, the higher the color developing durability.
Turning to `CCCCN(c1ccc(F)cc1)c1cc2c3c(c4c(c2cc1OC)OC(c1ccc(OC)cc1)(c1ccc(OC)cc1)C=C4)C(CCCCOC)(CCCCOC)c1ccccc1-3` [Example 16 Formula (77)], the “23°C color fading half-life” value was 1.2 min.
The same measure, in the same setting: with `CCCC1(CCC)c2ccccc2-c2c1c1c(c3cc(OC)c(N(c4ccccc4)c4ccccc4)cc23)OC(c2ccc(C)cc2)(c2ccc(N(C)c3ccccc3)cc2)C=C1` (stereo not drawn) [Example 22 Formula (89)] the figure was 1.25 min; with `CCCOc1ccc(C2(c3ccc(OC)cc3)C=Cc3c4c(c5cc(N(c6ccc(C(F)(F)F)cc6)c6ccc(C(F)(F)F)cc6)c(OC)cc5c3O2)-c2ccccc2C4(CCCCOC)CCCCOC)cc1` (stereo not drawn) [Example 11 Formula (63)], 0.667 min.

A short description of a further data set: Residual rate (A90/A0×100) after 90 h accelerated deterioration in xenon weather meter X25, color developing durability. Format: physicochemical. The conditions noted are these: photochromic laminate by coating method; xenon weather meter 90 hours. The method, boiled down:
as §1
With `CCCCN(c1ccc(F)cc1)c1cc2c3c(c4c(c2cc1OC)OC(c1ccc(OC)cc1)(c1ccc(OC)cc1)C=C4)C(CCCCOC)(CCCCOC)c1ccccc1-3` [Example 16 Formula (77)], the “Residual rate (%)” value was 80%.
Same read-out and setting: with `CCCC1(CCC)c2ccccc2-c2c1c1c(c3cc(OC)c(N(c4ccccc4)c4ccccc4)cc23)OC(c2ccc(C)cc2)(c2ccc(N(C)c3ccccc3)cc2)C=C1` (stereo not drawn) [Example 22 Formula (89)] the figure was 76%.
Regarding `CCCOc1ccc(C2(c3ccc(OC)cc3)C=Cc3c4c(c5cc(N(c6ccc(C(F)(F)F)cc6)c6ccc(C(F)(F)F)cc6)c(OC)cc5c3O2)-c2ccccc2C4(CCCCOC)CCCCOC)cc1` (stereo not drawn) [Example 11 Formula (63)], the “Residual rate (%)” value stood at 83%.
